#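 The compound was tested at five concentrations on cells cultured in 96-well plates, with a 48-hour exposure period. GI50 = concentration required for 50% inhibition of growth. TGI is the concentration that stops growth completely.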
# Experiments:
# Test in all cases: NCI tumour cell line growth inhibition, 48 h
# [1] = test system: RXF-631 renal
# [2] = test system: KM20L2 colon
# [3] = test system: DLD-1 colon
# [4] = test system: MDA-N
# [5] = test system: NCI/ADR-RES ovarian
# [6] = test system: PC-3 prostate
# [7] = test system: MDA-MB-435
# [8] = test system: P388 leukemia
# [9] = test system: P388/ADR leukemia
# [10] = test system: DU-145 prostate
# [11] = test system: SN12K1 renal
# [12] = test system: MCF7 breast
Compound,TGI [1] [µM],TGI [2] [µM],TGI [3] [µM],also measured
COc1ccc(C2CCc3cc4c(cc3/C2=N/OC(C)=O)OCO4)cc1OC (stereo not given),> 100,72.3,–,–
COc1cc2c(c(OC)c1OC)-c1ccc(SC)c(=O)cc1[C@@H](NC(=O)c1ccc(Cl)cc1)CC2,> 100,< 0.01,> 100,–
COc1ccc(S(=O)(=O)N(C)CC(=O)O)cc1,> 100,> 100,> 100,–
Nc1ccc(S(=O)(=O)Nc2cnc3c(Cl)cccc3n2)cc1,–,> 750,> 655,GI50 [4]: > 66.9 µM; TGI [4]: > 566 µM; TGI [5]: 629 µM; GI50 [6]: > 63.9 µM; TGI [6]: > 750 µM; GI50 [7]: 31.5 µM; TGI [7]: > 750 µM; TGI [8]: > 750 µM; TGI [9]: > 750 µM; TGI [10]: > 750 µM; TGI [11]: 472 µM; GI50 [12]: 45.3 µM; TGI [12]: > 721 µM
O=C(c1ccc(Cl)cc1)C1OC12C(=O)Nc1ccccc12 (stereo not given),34.7,41.3,6.29,TGI [4]: 14.5 µM; TGI [6]: 41 µM; TGI [7]: 35.5 µM; TGI [10]: 33.8 µM
CC1CC[C@]2(C(=O)O)CCC3(C)C(=CCC4[C@@]5(C)CC[C@H](OS(=O)(=O)c6ccccc6)C(C)(C)C5CC[C@]43C)[C@@H]2[C@H]1C (stereo not given in full),> 100,–,> 100,–
COc1cccc(NC(=O)C(=O)C(C(C)=O)c2nc3ccc(Cl)cc3[nH]c2=O)c1 (stereo not given),> 100,> 100,> 100,–
CN(C=O)/C=C/c1cc(O)ccc1O,> 100,> 62.4,39.4,TGI [10]: > 100 µM
CCOC(=O)[C@H]1Nc2ccccc2C2c3ccccc3CC21 (stereo not given in full),> 100,> 100,> 100,–
COc1ccc(CCN=C2CCC(C(=O)NCCc3ccc(OC)c(OC)c3)N2)cc1OC (stereo not given),> 100,> 100,> 100,–
COc1ccc(CCc2cc(OC)c(OC)c(OC)c2)cc1,4.45,0.049,> 100,TGI [4]: 0.021 µM; TGI [5]: > 100 µM; TGI [6]: > 62.6 µM; TGI [7]: 0.0345 µM; TGI [10]: 5.62 µM; TGI [12]: > 100 µM
O=S(=O)(c1ccc(O)c(C=Nc2ccc(Cl)cc2)c1)c1ccc(O)c(C=Nc2ccc(Cl)cc2)c1,> 100,> 100,> 100,–
FC1OC2OC1C(OCc1ccccc1)C(OCc1ccccc1)C2OCc1ccccc1 (stereo not given),> 100,> 100,> 100,–
CN1CCc2c1nc(-c1ccc([N+](=O)[O-])cc1)c1c2N(C)CC1,> 100,> 100,> 100,–
CNC(=O)CN(CC(N)=O)C(N)=O,> 100,> 100,> 100,–
CCCCCCCCCCCCCc1nn[nH]n1,29.3,37.4,31.8,–
C/C(CC(=O)N(C(C)C)C(C)C)=N\NC(=O)c1ccncc1,> 100,> 100,> 100,–
COC(=O)CC(C(C(C)=O)C(=O)OCc1ccccc1)N1C(=O)OCC1c1ccccc1 (stereo not given),> 100,> 100,> 100,–
COc1ccccc1NC(=O)C(CC(C(=O)Nc1ccccc1OC)/C(C)=N/Nc1ccc([N+](=O)[O-])cc1[N+](=O)[O-])/C(C)=N/Nc1ccc([N+](=O)[O-])cc1[N+](=O)[O-] (stereo not given),> 100,> 100,> 100,–
O=C(Nc1cccc(NC(=O)c2cc(=O)c3ccccc3o2)n1)c1cc(=O)c2ccccc2o1,> 100,> 100,> 100,–
CCCCCCCCCCCCCCCCOC(=O)c1cc(O)cc(C(=O)OCCCCCCCCCCCCCCCC)c1,> 100,> 100,–,–
CC(=O)C1C(=O)N(C(C)C)C[C@@H]2CCC(=O)C[C@H]12 (stereo not given in full),> 100,–,> 100,–
